# Measurements from US11708423B2, “Chimeric engulfment receptor molecules and methods of use” (CERO THERAPEUTICS, INC., priority 2017, dated 2023).
# How the values were obtained:
# [1] = system: dexamethasone pre-treated thymocytes; assay: Phagocytosis of thymocytes by CER Ba/F3 cells in presence or absence of Racl inhibitor; assay type: cell-based
# [2] = system: HCC159 lung adenocarcinoma cells; assay: Tim4-IgG1 Fc staining for phosphatidylserine exposure after EGFR inhibitor treatment; assay type: cell-based; conditions: 12 hours, increasing concentrations 50 nM and higher
# Description: HCC159 lung adenocarcinoma cells harbor an EGFR mutation and are sensitive to EGFR inhibition.
smiles,measurement,setting,value
CCN(CC)CCCC(C)Nc1nc(C)cc(Nc2ccc3nc(C)cc(N)c3c2)n1 (stereo not shown) [NSC23766],effect of Racl inhibitor on phagocytosis by CER21-transduced Ba/F3 cells,"[1]; 6 hour co-culture, FACS",abolishes phagocytosis
same,effect of Racl inhibition on CER116 mediated phagocytosis,"[1]; Ba/F3 cells, fluorescent micrographs",abolishes CER116 mediated phagocytosis of thymocytes
C#Cc1cccc(Nc2ncnc3cc(OCCOC)c(OCCOC)cc23)c1 [Erlotinib],surface staining with Tim4-IgG1 Fc fusion protein (phosphatidylserine exposure),[2],enhanced surface staining with Tim4-IgG1 Fc fusion protein
C=CC(=O)Nc1cc(Nc2nccc(-c3cn(C)c4ccccc34)n2)c(OC)cc1N(C)CCN(C)C [Osimeritinib],surface staining with Tim4-IgG1 Fc fusion protein (phosphatidylserine exposure),[2],enhanced surface staining with Tim4-IgG1 Fc fusion protein
